The text below walks through data of patent US10273226B2, “Pyrazolyl-heteroarylamides as pesticides” (Bayer Animal Health GmbH, priority 2014, dated 2019).

Type in all cases: in vivo
Assay [1] concerns Spodoptera frugiperda. Description: Spodoptera frugiperda spray test. The note with it: caterpillars, after 7 days. Put shortly: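 Maize leaf discs were sprayed with compound formulated in solvent plus water containing 1000 ppm emulsifier, dried, then infested with Spodoptera frugiperda caterpillars. Efficacy in % mortality was scored after 7 days (100% all killed, 0% none).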

The subject of assay [2] is Ctenocephalides felis. Description: Ctenocephalides felis in vitro contact test with adult cat fleas. As to conditions: after 48 h, fleas dead or moribund. On the procedure:
Ctenocephalides felis—In Vitro Contact Tests with Adult Cat Fleas
For the coating of the test tubes, 9 mg of active ingredient are first dissolved in 1 ml of acetone p.a. and then diluted to the desired concentration with acetone p.a. 250 μl of the solution are distributed homogeneously on the inner walls and base of a 25 ml test tube by turning and rocking on an orbital shaker (rocking rotation at 30 rpm for 2 h). With 900 ppm active ingredient solution and internal surface 44.7 cm^2, given homogeneous distribution, an area-based dose of 5 μg/cm^2 is achieved.
After the solvent has evaporated off, the tubes are populated with 5-10 adult cat fleas (Ctenocephalides felis), sealed with a perforated plastic lid and incubated in a horizontal position at room temperature and ambient humidity. After 48 h, efficacy is determined. To this end, the test tubes are stood upright and the fleas are knocked to the base of the tube. Fleas which remain motionless at the base or move in an uncoordinated manner are considered to be dead or moribund.
100% efficacy means that all the fleas were dead or moribund. 0% efficacy means that no fleas were harmed.

Assay [3] concerns Ctenocephalides felis. Briefly: Ctenocephalides felis oral test. As to conditions: application rate 100 ppm in citrated cattle blood; after 2 days. The method, boiled down:
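About 20 unfed adult cat fleas fed through a parafilm membrane on citrated cattle blood containing compound, dosed from a DMSO stock. Kill in % scored after 2 days; 100% means all fleas dead.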

Assay [4] concerns Boophilus microplus. Briefly: Boophilus microplus injection test. As to conditions: application rate 20 μg/animal; injection into abdomen; assessed after 7 days. Put shortly: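 Scoring was by fertile egg laying 7 days after injection, holding doubtful eggs until larvae hatched at about 42 days; 100% = no fertile eggs, 0% = all eggs fertile. Groups of 5 engorged adult female cattle ticks were each injected abdominally with 1 μl of compound in DMSO.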

Assay [5] relates to Tetranychus urticae. Description: Tetranychus urticae spray test, OP-resistant. As to conditions: after 6 days. Put shortly:
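Bean leaf discs (Phaseolus vulgaris) carrying all stages of OP-resistant mites are sprayed with compound formulated in solvent and emulsifier-containing water. Efficacy (% mites killed) is scored after 6 days.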

Assay [6] relates to Myzus persicae. Description: Myzus persicae spray test. The note with it: after 6 days. On the procedure:
Myzus persicae—Spray Test
To produce an appropriate active ingredient formulation, 1 part by weight of active ingredient is dissolved using the specified parts by weight of solvent and made up with water containing an emulsifier concentration of 1000 ppm until the desired concentration is attained. To produce further test concentrations, the preparation is diluted with emulsifier-containing water.
Discs of Chinese cabbage leaves (Brassica pekinensis) infested by all stages of the green peach aphid (Myzus persicae) are sprayed with an active ingredient formulation of the desired concentration.
After 6 days, efficacy in % is determined. 100% means that all the aphids have been killed; 0% means that none of the aphids have been killed.

In assay [7] the test system is Rhipicephalus sanguineus. Description: Rhipicephalus sanguineus in vitro contact test with adult brown dog ticks. The note with it: after 48 h, ticks dead or moribund. Put shortly: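 Test tubes (25 ml) were coated by dissolving active ingredient in acetone p.a., diluting to the required concentration, and spreading 250 μl over the inner walls and base on an orbital shaker at 30 rpm for 2 h. Once dry, 5-10 adult Rhipicephalus sanguineus were added, and tubes were capped with perforated lids and kept horizontal in darkness at room temperature. At 48 h, ticks were knocked down and heated at 45-50° C. for up to 5 min. Those unable to climb away were counted dead or moribund, and efficacy ran from 0% to 100%.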

For assay [8], the system named is Phaedon cochleariae. Description: Phaedon cochleariae spray test. As to conditions: larvae, after 7 days. Put shortly: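 Chinese cabbage leaf discs were sprayed with the compound formulated in water containing 1000 ppm emulsifier. After drying, they were infested with mustard beetle larvae. Efficacy was scored as % larvae killed after 7 days (100% = all dead, 0% = none).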

The subject of assay [9] is Lucilia cuprina. Description: Lucilia cuprina test. As to conditions: application rate 100 ppm; L1 larvae; after 2 days. The method, boiled down:
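About 20 L1 larvae placed in vessels with minced horsemeat treated with compound (DMSO concentrate diluted in water) at the desired concentration. Kill (%) scored after 2 days; 100% means all larvae dead, 0% none.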

In assay [10] the test system is Musca domestica. Briefly: Musca domestica test. As to conditions: application rate 100 ppm; adult houseflies; after 2 days. The protocol: Solvent: dimethyl sulphoxide
To produce an appropriate active ingredient formulation, 10 mg of active ingredient are mixed with 0.5 ml of dimethyl sulphoxide, and the concentrate is diluted with water to the desired concentration.
Vessels containing a sponge treated with sugar solution and the active ingredient formulation of the desired concentration are populated with 10 adult houseflies (Musca domestica).
After 2 days, the kill in % is determined. 100% means that all of the flies have been killed; 0% means that none of the flies have been killed.

[11] abbreviates: application rate 5 μg/cm^2 (500 g/ha).
The mark [12] stands for this setting: application rate 1 μg/cm^2 (100 g/ha).

Regarding `Cn1nc(C(F)(F)C(F)(F)F)c(C(F)(F)F)c1-n1cc(-c2cccc(NC(=O)c3ccsc3)c2)cn1` [Example 1-016], the efficacy in [1] (application rate 500 g/ha) stood at 100%; in assay [2] (setting [11]), 100%; in assay [5] (application rate 500 g/ha), 100%; in assay [6] (application rate 500 g/ha) it was 90%; in assay [7] (setting [11]), 100%; in [8] (application rate 500 g/ha) it was 100%. The “efficacy (kill in %)” value in [3] and in assay [9] was 100% in each case. In addition, the “efficacy (laying of fertile eggs)” value in assay [4] is 100%.

`COCC(=O)Nc1cc(-c2cnn(-c3c(C(F)(F)F)c(C(F)(F)C(F)(F)F)nn3C)c2)ccc1F` [Example 1-048]: the “efficacy (kill in %)” value in assay [3] and in assay [9] was 95% each time. Moreover, the “efficacy (laying of fertile eggs)” value in assay [4] was determined as 100%. For the same molecule, the efficacy is listed as 100% in assay [5] (application rate 100 g/ha), 90% in [6] (application rate 100 g/ha) and 100% in assay [7] (setting [11]).

As for `CC(C)C(=O)Nc1cc(-c2cnn(-c3c(C(F)(F)F)c(C(F)(F)C(F)(F)F)nn3C)c2)ccc1F` [Example 1-064], the efficacy in [1] (application rate 100 g/ha), in assay [2] (setting [11]), in [5] (application rate 100 g/ha), in [6] (application rate 100 g/ha), in [7] (setting [11]) and in [8] (application rate 100 g/ha) was 100% throughout. Also, the “efficacy (kill in %)” value in assay [3] and in assay [9] was 100% throughout. Moreover, in [4], the “efficacy (laying of fertile eggs)” value stood at 100%.

`Cn1nc(C(F)(F)C(F)(F)F)c(C(F)(F)F)c1-n1cc(-c2ccc(F)c(NC(=O)c3ccncn3)c2)cn1` [Example 1-034]: the efficacy in assay [1] (application rate 100 g/ha), in [2] (setting [11]), in assay [5] (application rate 100 g/ha), in assay [7] (setting [11]) and in assay [8] (application rate 100 g/ha) was 100% throughout. Also, the “efficacy (kill in %)” value in assay [3], in assay [10] and in assay [9] was 100% each time. Besides, in assay [4], the “efficacy (laying of fertile eggs)” value is 100%.

Regarding `Cn1nc(C(F)(F)C(F)(F)F)c(C(F)(F)F)c1-n1cc(-c2cccc(NC(=O)c3cc(F)cc(F)c3)c2)cn1` [Example 1-014], the efficacy in assay [1] (application rate 100 g/ha) was 100%; in assay [2] (setting [12]), 80%; in assay [5] (application rate 100 g/ha), 90%; in assay [7] (setting [11]) it was 100%; in assay [8] (application rate 100 g/ha), 100%. The “efficacy (kill in %)” value was determined as 100% in [3], 90% in assay [10] and 100% in assay [9]. In addition, the “efficacy (laying of fertile eggs)” value in assay [4] turned out to be 100%.

On to `Cn1nc(C(F)(F)C(F)(F)F)c(C(F)(F)F)c1-n1cc(-c2ccc(F)c(NC(=O)c3ccc(Cl)c(F)c3)c2)cn1` [Example 1-096], for which the efficacy in [1] (application rate 100 g/ha), in assay [2] (setting [11]), in assay [5] (application rate 100 g/ha), in assay [7] (setting [11]) and in [8] (application rate 100 g/ha) was 100% each time. For the same molecule, the “efficacy (kill in %)” value in assay [3] is on record as 100%; in assay [10], 90%; in assay [9], 100%. In addition, the “efficacy (laying of fertile eggs)” value in assay [4] amounted to 100%.

As for `Cn1nc(C(F)(F)C(F)(F)F)c(C(F)(F)F)c1-n1cc(-c2cnc(Cl)c(NC(=O)c3ccncc3)c2)cn1` [Example 2-006], the efficacy in assay [1] (application rate 100 g/ha) came to 100%; in assay [2] (setting [11]), 100%; in assay [5] (application rate 100 g/ha) it was 100%; in [7] (setting [11]) it was 80%; in assay [8] (application rate 100 g/ha), 100%. Moreover, the “efficacy (kill in %)” value in assay [3] was determined as 100%; in [10], 90%; in assay [9], 100%. Also, the “efficacy (laying of fertile eggs)” value in [4] amounted to 100%.

As for `Cn1nc(C(F)(F)C(F)(F)F)c(C(F)(F)F)c1-n1cc(-c2cccc(NC(=O)C(F)(F)C(F)F)c2)cn1` [Example 1-009], the efficacy in assay [1] (application rate 500 g/ha), in [5] (application rate 500 g/ha), in assay [6] (application rate 100 g/ha), in assay [7] (setting [11]) and in [8] (application rate 500 g/ha) was 100% throughout. Further, the “efficacy (kill in %)” value in assay [3] and in assay [9] was 100% each time. In addition, the “efficacy (laying of fertile eggs)” value in [4] worked out at 100%.

Take `Cc1oncc1C(=O)Nc1cc(-c2cnn(-c3c(C(F)(F)F)c(C(F)(F)C(F)(F)F)nn3C)c2)ccc1F` [Example 1-081]: the efficacy in assay [1] (application rate 100 g/ha), in assay [2] (setting [11]), in [5] (application rate 100 g/ha), in [6] (application rate 100 g/ha), in assay [7] (setting [11]) and in assay [8] (application rate 100 g/ha) was 100% each time. Also, the “efficacy (kill in %)” value in [3] and in [9] was 100% in each case. Moreover, the “efficacy (laying of fertile eggs)” value in assay [4] is 100%.

Regarding `Cn1nc(C(F)(F)C(F)(F)F)c(C(F)(F)F)c1-n1cc(-c2ccc(F)c(NC(=O)C(F)(F)C(F)F)c2)cn1` [Example 1-033], the “efficacy (kill in %)” value in [3] and in [9] was 100% in each case. Moreover, the “efficacy (laying of fertile eggs)” value in [4] is 100%. Also, the efficacy in [5] (application rate 100 g/ha) was 100%; in assay [6] (application rate 100 g/ha) it was 90%; in assay [7] (setting [12]), 100%; in assay [8] (application rate 100 g/ha), 83%.

Turning to `Cn1nc(C(F)(F)C(F)(F)F)c(C(F)(F)F)c1-n1cc(-c2cccc(NC(=O)c3ccccc3F)c2)cn1` [Example 1-012], the efficacy worked out at 100% in assay [1] (application rate 100 g/ha); 100% in assay [2] (setting [11]); 100% in [5] (application rate 100 g/ha); 90% in [6] (application rate 100 g/ha); 100% in [7] (setting [11]); 100% in assay [8] (application rate 100 g/ha). Moreover, the “efficacy (kill in %)” value in [3] and in assay [9] was 100% in each case. The “efficacy (laying of fertile eggs)” value in assay [4] is 100%.

Take `CCC(=O)Nc1cc(-c2cnn(-c3c(C(F)(F)F)c(C(F)(F)C(F)(F)F)nn3C)c2)ccc1F` [Example 1-076]: the efficacy in assay [1] (application rate 100 g/ha) is reported as 100%; in assay [2] (setting [11]), 100%; in [5] (application rate 100 g/ha), 90%; in assay [6] (application rate 100 g/ha), 100%; in assay [7] (setting [11]), 100%; in [8] (application rate 100 g/ha), 100%. The “efficacy (kill in %)” value was 100% in assay [3] and 95% in assay [9]. Further, the “efficacy (laying of fertile eggs)” value in [4] is 100%.

Take `Cn1nc(C(F)(F)C(F)(F)F)c(C(F)(F)F)c1-n1cc(-c2cccc(NC(=O)c3cccs3)c2)cn1` [Example 1-017]: the efficacy amounted to 100% in assay [1] (application rate 100 g/ha); 100% in [5] (application rate 100 g/ha); 90% in [6] (application rate 100 g/ha); 100% in assay [7] (setting [11]); 100% in [8] (application rate 100 g/ha). In addition, the “efficacy (kill in %)” value in assay [3] and in assay [9] was 100% throughout. Besides, the “efficacy (laying of fertile eggs)” value in assay [4] is given as 100%.
